Active and inactive are the calls of the source. The calls are words filed in the database; no cut-off is given here.
Assays:
Bone marrow cell [1] = assay: Growth inhibition of human Bone marrow cell incubated for 24 hrs by CCK8 assay; assay type: cell-based
Quadruplex DNA [2] = assay: Binding affinity to TA-core G4 DNA 5'-TAGGGTTAGGGTTAGGGTTAGGG-3' (unknown origin) assessed as Gibbs free energy change measured under dilution conditions by isothermal titration calorimetry; assay type: nucleic-acid assay; conditions: Homo sapiens
Quadruplex DNA [3] = assay: Binding affinity to TA-core G4 DNA 5'-TAGGGTTAGGGTTAGGGTTAGGG-3' (unknown origin) assessed as Gibbs free energy change measured under molecular crowding conditions by isothermal titration calorimetry; assay type: nucleic-acid assay; conditions: Homo sapiens
Quadruplex DNA [4] = assay: Binding affinity to TA-core G4 DNA 5'-TAGGGTTAGGGTTAGGGTTAGGG-3' (unknown origin) assessed as association constant at equilibrium measured under molecular crowding conditions by isothermal titration calorimetry; assay type: nucleic-acid assay; conditions: Homo sapiens
[5] = target: Telomerase reverse transcriptase (Homo sapiens) (UniProt O14746); assay: Inhibition of telomerase in human A549 cell lysate using TA-core (5'-TAGGGTTAGGGTTAGGGTTAGGG-3') and Rev21G (5'-TCT CGT CTF CCC TAA-3') as primer by PCR stop assay; assay type: subcellular
Quadruplex DNA [6] = assay: Binding affinity to c-myc G4 DNA 5'-TGAGGGTGGGGAGGGTGGGGAA-3' (unknown origin) assessed as association constant at equilibrium measured under dilution conditions by isothermal titration calorimetry; assay type: nucleic-acid assay; conditions: Homo sapiens
Quadruplex DNA [7] = assay: Binding affinity to c-myc G4 DNA 5'-TGAGGGTGGGGAGGGTGGGGAA-3' (unknown origin) assessed as association constant at equilibrium measured under molecular crowding conditions by isothermal titration calorimetry; assay type: nucleic-acid assay; conditions: Homo sapiens
Quadruplex DNA [8] = assay: Binding affinity to TA-core G4 DNA 5'-TAGGGTTAGGGTTAGGGTTAGGG-3' (unknown origin) assessed as change in entropy measured under dilution conditions by isothermal titration calorimetry; assay type: nucleic-acid assay; conditions: Homo sapiens
[9] = Growth inhibition of human NHEK cells at 0.1 uM incubated for 24 hrs by CCK8 assay; assay type: tissue-based; conditions: read-out: GI
Quadruplex DNA [10] = assay: Binding affinity at TA-core G4 DNA 5'-TAGGGTTAGGGTTAGGGTTAGGG-3' (unknown origin) assessed as circular dichroism changes up to 4.5 uM by spectrophotometric method; assay type: nucleic-acid assay; conditions: Homo sapiens; dose microM <=4.5
Quadruplex DNA [11] = assay: Binding affinity to c-myc G4 DNA 5'-TGAGGGTGGGGAGGGTGGGGAA-3' (unknown origin) assessed as Gibbs free energy change measured under molecular crowding conditions by isothermal titration calorimetry; assay type: nucleic-acid assay; conditions: Homo sapiens
Quadruplex DNA [12] = assay: Binding affinity to TA-core G4 DNA 5'-TAGGGTTAGGGTTAGGGTTAGGG-3' (unknown origin) assessed as association constant at equilibrium measured under dilution conditions by isothermal titration calorimetry; assay type: nucleic-acid assay; conditions: Homo sapiens
Quadruplex DNA [13] = assay: Binding affinity to c-myc G4 DNA 5'-TGAGGGTGGGGAGGGTGGGGAA-3' (unknown origin) assessed as Gibbs free energy change measured under dilution conditions by isothermal titration calorimetry; assay type: nucleic-acid assay; conditions: Homo sapiens
Quadruplex DNA [14] = assay: Binding affinity to c-myc G4 DNA 5'-TGAGGGTGGGGAGGGTGGGGAA-3' (unknown origin) assessed as change in entropy measured under dilution conditions by isothermal titration calorimetry; assay type: nucleic-acid assay; conditions: Homo sapiens
Quadruplex DNA [15] = assay: Binding affinity to TA-core G4 DNA 5'-TAGGGTTAGGGTTAGGGTTAGGG-3' (unknown origin) assessed as change in enthalpy measured under dilution conditions by isothermal titration calorimetry; assay type: nucleic-acid assay; conditions: Homo sapiens
Bone marrow cell [16] = assay: Growth inhibition of human Bone marrow at 0.1 uM cell incubated for 24 hrs by CCK8 assay; assay type: cell-based
Quadruplex DNA [17] = assay: Binding affinity to c-myc G4 DNA 5'-TGAGGGTGGGGAGGGTGGGGAA-3' (unknown origin) assessed as change in entropy measured under molecular crowding conditions by isothermal titration calorimetry; assay type: nucleic-acid assay; conditions: Homo sapiens
Quadruplex DNA [18] = assay: Binding affinity to TA-core G4 DNA 5'-TAGGGTTAGGGTTAGGGTTAGGG-3' (unknown origin) assessed as change in enthalpy measured under molecular crowding conditions by isothermal titration calorimetry; assay type: nucleic-acid assay; conditions: Homo sapiens
Quadruplex DNA [19] = assay: Binding affinity to c-myc G4 DNA 5'-TGAGGGTGGGGAGGGTGGGGAA-3' (unknown origin) assessed as change in enthalpy measured under molecular crowding conditions by isothermal titration calorimetry; assay type: nucleic-acid assay; conditions: Homo sapiens
Quadruplex DNA [20] = assay: Binding affinity to c-myc G4 DNA 5'-TGAGGGTGGGGAGGGTGGGGAA-3' (unknown origin) assessed as change in enthalpy measured under dilution conditions by isothermal titration calorimetry; assay type: nucleic-acid assay; conditions: Homo sapiens
Quadruplex DNA [21] = assay: Binding affinity to TA-core G4 DNA 5'-TAGGGTTAGGGTTAGGGTTAGGG-3' (unknown origin) assessed as change in entropy measured under molecular crowding conditions by isothermal titration calorimetry; assay type: nucleic-acid assay; conditions: Homo sapiens
Quadruplex DNA [22] = assay: Binding affinity at TA-core G4 DNA 5'-TAGGGTTAGGGTTAGGGTTAGGG-3' (unknown origin) assessed as change in melting temperature by circular dichroism spectrophotometric method; assay type: nucleic-acid assay; conditions: Homo sapiens
Quadruplex DNA [23] = assay: Binding affinity at c-myc G4 DNA 5'-TGAGGGTGGGGAGGGTGGGGAA-3' (unknown origin) assessed as circular dichroism changes up to 4.5 uM by spectrophotometric method; assay type: nucleic-acid assay; conditions: Homo sapiens; dose microM <=4.5
[24] = Growth inhibition of human NHEK cells incubated for 24 hrs by CCK8 assay; assay type: tissue-based
Ca9-22 [25] = assay: Growth inhibition of human Ca9-22 cells at 0.1 uM incubated for 24 hrs by CCK8 assay; assay type: functional; conditions: read-out: GI
Ca9-22 [26] = assay: Growth inhibition of human Ca9-22 cells incubated for 24 hrs by CCK8 assay; assay type: functional, cell-based

Telomerase reverse transcriptase (Homo sapiens), sequence (O14746 whole entry): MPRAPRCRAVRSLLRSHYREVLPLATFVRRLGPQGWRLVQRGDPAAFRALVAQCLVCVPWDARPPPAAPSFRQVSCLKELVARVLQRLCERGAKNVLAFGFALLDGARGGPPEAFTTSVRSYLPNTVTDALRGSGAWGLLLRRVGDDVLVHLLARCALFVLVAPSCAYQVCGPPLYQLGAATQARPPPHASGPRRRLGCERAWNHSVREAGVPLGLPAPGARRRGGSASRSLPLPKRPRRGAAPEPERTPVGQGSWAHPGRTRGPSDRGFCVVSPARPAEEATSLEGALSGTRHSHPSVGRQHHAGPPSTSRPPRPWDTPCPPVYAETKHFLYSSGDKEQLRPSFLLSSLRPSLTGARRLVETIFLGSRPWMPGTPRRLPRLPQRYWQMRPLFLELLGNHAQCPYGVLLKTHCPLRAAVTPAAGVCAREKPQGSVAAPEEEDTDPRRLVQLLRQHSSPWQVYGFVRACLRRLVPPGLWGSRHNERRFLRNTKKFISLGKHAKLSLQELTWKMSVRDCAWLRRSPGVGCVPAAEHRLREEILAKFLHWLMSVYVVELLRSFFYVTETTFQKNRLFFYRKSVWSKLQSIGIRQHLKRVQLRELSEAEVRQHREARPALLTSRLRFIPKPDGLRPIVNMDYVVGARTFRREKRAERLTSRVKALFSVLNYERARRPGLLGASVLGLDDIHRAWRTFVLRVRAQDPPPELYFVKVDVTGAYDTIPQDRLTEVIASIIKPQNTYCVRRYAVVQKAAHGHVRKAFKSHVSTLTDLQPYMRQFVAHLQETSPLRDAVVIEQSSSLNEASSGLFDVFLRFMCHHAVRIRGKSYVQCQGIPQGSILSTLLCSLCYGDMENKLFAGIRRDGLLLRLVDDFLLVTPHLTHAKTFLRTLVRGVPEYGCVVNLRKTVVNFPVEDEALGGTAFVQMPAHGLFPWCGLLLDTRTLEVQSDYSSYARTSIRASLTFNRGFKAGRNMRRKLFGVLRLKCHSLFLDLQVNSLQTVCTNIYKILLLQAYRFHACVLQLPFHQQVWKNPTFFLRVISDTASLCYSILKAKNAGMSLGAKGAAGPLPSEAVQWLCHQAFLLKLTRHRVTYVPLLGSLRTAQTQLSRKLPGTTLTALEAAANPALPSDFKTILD

| deltaG (Quadruplex DNA [2]) [kcal/mol] | deltaG (Quadruplex DNA [3]) [kcal/mol] | Ka (Quadruplex DNA [4]) [M⁻¹] | inhibition [5] | Ka (Quadruplex DNA [6]) [M⁻¹] | Ka (Quadruplex DNA [7]) [M⁻¹] | -TdeltaS (Quadruplex DNA [8]) [kcal/mol] | Activity (Quadruplex DNA [10]) | deltaG (Quadruplex DNA [11]) [kcal/mol] | Ka (Quadruplex DNA [12]) [M⁻¹] | deltaG (Quadruplex DNA [13]) [kcal/mol] | -TdeltaS (Quadruplex DNA [14]) [kcal/mol] | deltaH (Quadruplex DNA [15]) [kcal/mol] | -TdeltaS (Quadruplex DNA [17]) [kcal/mol] | deltaH (Quadruplex DNA [18]) [kcal/mol] | deltaH (Quadruplex DNA [19]) [kcal/mol] | deltaH (Quadruplex DNA [20]) [kcal/mol] | -TdeltaS (Quadruplex DNA [21]) [kcal/mol] | ΔTm (Quadruplex DNA [22]) [°C] | Activity (Quadruplex DNA [23]) | SMILES | other results |
| --- | --- | --- | --- | --- | --- | --- | --- | --- | --- | --- | --- | --- | --- | --- | --- | --- | --- | --- | --- | --- | --- |
| -8.6 | -7.9 | 600000 | Active | 6.2e+06 | 700000 | 4.4 | Active | -8 | 1.5e+06 | -9.3 | 4.7 | -13 | 12 | -43 | -20 | -14 | 35 | 10 | Active | CN1CCCNC(=O)CC2(CCCCC2)CC(=O)NCCCN(C)CCCN2C(=O)c3ccc4c5c(ccc(c35)C2=O)C(=O)N(CCC1)C4=O | Activity (Bone marrow cell [1]): Non-Toxic; inhibition at 24 h, 0.1 µM [9]: 40%; Activity (Bone marrow cell [16]): Non-Toxic; Activity [24]: Non-Toxic; inhibition of growth at 0.1 µM (Ca9-22 [25]): > 70%; Activity (Ca9-22 [26]): Active |
| -8.5 | -8 | 700000 | Active | 2.6e+06 | 400000 | 2.5 | Active | -7.6 | 1.7e+06 | -8.7 | 2.3 | -11 | 41 | -29 | -48 | -11 | 21 | 10 | Active | CN1CCCNC(=O)CC(C)(C)CC(=O)NCCCN(C)CCCN2C(=O)c3ccc4c5c(ccc(c35)C2=O)C(=O)N(CCC1)C4=O | Activity (Ca9-22 [26]): Active |
| -8.9 | -8.6 | 1.9e+06 | Active | 1.1e+06 | 1.6e+06 | -0.4 | Active | -8.5 | 3.4e+06 | -8.1 | 2.9 | -8.5 | 12 | -22 | -20 | -11 | 14 | 10 | Active | CN1CCCNC(=O)CCCC(=O)NCCCN(C)CCCN2C(=O)c3ccc4c5c(ccc(c35)C2=O)C(=O)N(CCC1)C4=O | Activity (Ca9-22 [26]): Active |
| -8.6 | -8 | 700000 | Active | 2.4e+06 | 800000 | 0.36 | Active | -8 | 2.2e+06 | -8.7 | 1.3 | -9 | 45 | -35 | -53 | -10 | 27 | 10 | Active | CN1CCCNC(=O)c2cccc(c2)C(=O)NCCCN(C)CCCN2C(=O)c3ccc4c5c(ccc(c35)C2=O)C(=O)N(CCC1)C4=O | Activity (Ca9-22 [26]): Active |

Source: ChEMBL document CHEMBL4808234, “Substituent effects of cyclic naphthalene diimide on G-quadruplex binding and the inhibition of cancer cell growth” (Bioorg Med Chem Lett, 2021)
